Results on eight compounds are retold here after patent US20110009381A1, “SOLUBILIZED THIAZOLOPYRIDINES” (Sirtis Pharmaceuticals, Inc., priority 2007, published 2011).

The structures appear in SMILES notation.

This experiment deals with T1, SIRT1 (Homo sapiens, UniProt Q96EB6).
T1 sequence (Q96EB6 1-747): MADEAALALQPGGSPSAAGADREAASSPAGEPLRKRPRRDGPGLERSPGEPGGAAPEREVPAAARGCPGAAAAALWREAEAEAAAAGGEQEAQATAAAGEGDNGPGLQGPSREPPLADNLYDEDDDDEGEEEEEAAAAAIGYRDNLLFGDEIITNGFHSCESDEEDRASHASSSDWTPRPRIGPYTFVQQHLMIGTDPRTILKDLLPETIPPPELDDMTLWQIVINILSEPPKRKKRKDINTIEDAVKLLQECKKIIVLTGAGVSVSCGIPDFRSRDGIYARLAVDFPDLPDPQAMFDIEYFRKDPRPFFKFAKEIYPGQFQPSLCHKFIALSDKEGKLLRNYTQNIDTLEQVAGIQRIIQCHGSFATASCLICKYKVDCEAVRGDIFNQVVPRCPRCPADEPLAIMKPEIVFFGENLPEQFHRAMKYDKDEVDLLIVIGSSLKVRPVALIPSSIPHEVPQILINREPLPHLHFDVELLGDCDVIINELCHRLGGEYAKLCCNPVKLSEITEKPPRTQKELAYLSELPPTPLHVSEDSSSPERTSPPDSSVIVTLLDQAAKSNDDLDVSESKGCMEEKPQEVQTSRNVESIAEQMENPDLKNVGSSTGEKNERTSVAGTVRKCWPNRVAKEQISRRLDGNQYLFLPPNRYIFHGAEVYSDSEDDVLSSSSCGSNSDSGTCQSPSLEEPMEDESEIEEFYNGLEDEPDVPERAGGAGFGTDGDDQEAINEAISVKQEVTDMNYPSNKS
Briefly: Mass spectrometry based assay to identify modulators of SIRT1 activity (deacetylation of p53-based acetylated peptide substrate). The format is biochemical. The conditions noted are these: 10 nM SIRT1, 0.5 μM peptide substrate, 120 μM βNAD+, 25 minutes at 25° C.; for EC1.5: SIRT1 activation. The method, boiled down: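 Activation measured on His-tagged SIRT1 (10 nM, E. coli-expressed) deacetylating a 0.5 μM p53-derived acetyl-peptide with 120 μM βNAD^+ for 25 min at 25 °C, pH 8 Tris-acetate. After formic acid stop, mass spectrometry quantified acetylated versus deacetylated peptide, referenced to DMSO and nicotinamide controls. Reported as EC1.5 and maximum fold activation.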

Regarding `O=C(Nc1ccccc1-c1nc2cccnc2s1)c1cc(NCC2CCCNC2)nc(-c2ccccc2)n1` (stereo not shown) [Compound 109], the “FOLD ACT. (percent maximum fold activation)” value is given as “A (Fold activation≧300%)” and the EC1.5 entry is “A′ (EC1.5<250 nM)”.

Turning to `CC(=O)NCCNc1cc(C(=O)Nc2ccccc2-c2nc3cccnc3s2)nc(-c2ccccc2)n1` [Compound 51], the “FOLD ACT. (percent maximum fold activation)” value is on record as “A (Fold activation≧300%)” and the EC1.5 result is “A′ (EC1.5<250 nM)”.

Take `CN1CCN(c2cc(C(=O)Nc3ccccc3-c3nc4cccnc4s3)nc(-c3ccccc3)n2)CC1=O` [Compound 151]: the “FOLD ACT. (percent maximum fold activation)” value was “B (Fold Activation≧150% and <300%)”; the EC1.5 result is listed as “A′ (EC1.5<250 nM)”.

As to `CSCCNc1cc(C(=O)Nc2ccccc2-c2nc3cccnc3s2)nc(-c2ccccc2)n1` [Compound 45], the “FOLD ACT. (percent maximum fold activation)” value was “B (Fold Activation≧150% and <300%)”; the EC1.5 entry was “B (EC1.5>1 and ≦10 uM)”.

With `O=C(Nc1ccccc1-c1nc2cccnc2s1)c1cc(N2CCCCC2)nc(-c2ccccc2)n1` [Compound 21], the “FOLD ACT. (percent maximum fold activation)” value is recorded as “C (Fold Activation<150%)” and the EC1.5 result is on record as “C (EC1.5>10 uM)”.

Take `C[C@@H]1CN(CCOc2cc(C(=O)Nc3ccccc3-c3nc4cccnc4s3)nc(-c3ccccc3)c2)C[C@H](C)O1` [Compound 36]: the “FOLD ACT. (percent maximum fold activation)” value is on record as “A (Fold activation≧300%)” and the EC1.5 result is reported as “A′ (EC1.5<250 nM)”.

Regarding `CC(C)CNc1cc(C(=O)Nc2ccccc2-c2nc3cccnc3s2)nc(-c2ccccc2)n1` [Compound 19], the “FOLD ACT. (percent maximum fold activation)” value is recorded as “C (Fold Activation<150%)” and the EC1.5 entry was “C (EC1.5>10 uM)”.

In the case of `Cc1ccn(CCNc2cc(C(=O)Nc3ccccc3-c3nc4cccnc4s3)nc(-c3ccccc3)n2)n1` [Compound 78], the “FOLD ACT. (percent maximum fold activation)” value is “A (Fold activation≧300%)” and the EC1.5 result is recorded as “A′ (EC1.5<250 nM)”.
